In article PMC3480796 (Indian Journal of Pharmacology, 2012):

Molecular target: cystic fibrosis transmembrane conductance regulator (CFTR) (Homo sapiens, UniProt P13569)
Test: apical chloride current
Type: cell-based

Sequence of cystic fibrosis transmembrane conductance regulator (CFTR) (P13569 whole entry): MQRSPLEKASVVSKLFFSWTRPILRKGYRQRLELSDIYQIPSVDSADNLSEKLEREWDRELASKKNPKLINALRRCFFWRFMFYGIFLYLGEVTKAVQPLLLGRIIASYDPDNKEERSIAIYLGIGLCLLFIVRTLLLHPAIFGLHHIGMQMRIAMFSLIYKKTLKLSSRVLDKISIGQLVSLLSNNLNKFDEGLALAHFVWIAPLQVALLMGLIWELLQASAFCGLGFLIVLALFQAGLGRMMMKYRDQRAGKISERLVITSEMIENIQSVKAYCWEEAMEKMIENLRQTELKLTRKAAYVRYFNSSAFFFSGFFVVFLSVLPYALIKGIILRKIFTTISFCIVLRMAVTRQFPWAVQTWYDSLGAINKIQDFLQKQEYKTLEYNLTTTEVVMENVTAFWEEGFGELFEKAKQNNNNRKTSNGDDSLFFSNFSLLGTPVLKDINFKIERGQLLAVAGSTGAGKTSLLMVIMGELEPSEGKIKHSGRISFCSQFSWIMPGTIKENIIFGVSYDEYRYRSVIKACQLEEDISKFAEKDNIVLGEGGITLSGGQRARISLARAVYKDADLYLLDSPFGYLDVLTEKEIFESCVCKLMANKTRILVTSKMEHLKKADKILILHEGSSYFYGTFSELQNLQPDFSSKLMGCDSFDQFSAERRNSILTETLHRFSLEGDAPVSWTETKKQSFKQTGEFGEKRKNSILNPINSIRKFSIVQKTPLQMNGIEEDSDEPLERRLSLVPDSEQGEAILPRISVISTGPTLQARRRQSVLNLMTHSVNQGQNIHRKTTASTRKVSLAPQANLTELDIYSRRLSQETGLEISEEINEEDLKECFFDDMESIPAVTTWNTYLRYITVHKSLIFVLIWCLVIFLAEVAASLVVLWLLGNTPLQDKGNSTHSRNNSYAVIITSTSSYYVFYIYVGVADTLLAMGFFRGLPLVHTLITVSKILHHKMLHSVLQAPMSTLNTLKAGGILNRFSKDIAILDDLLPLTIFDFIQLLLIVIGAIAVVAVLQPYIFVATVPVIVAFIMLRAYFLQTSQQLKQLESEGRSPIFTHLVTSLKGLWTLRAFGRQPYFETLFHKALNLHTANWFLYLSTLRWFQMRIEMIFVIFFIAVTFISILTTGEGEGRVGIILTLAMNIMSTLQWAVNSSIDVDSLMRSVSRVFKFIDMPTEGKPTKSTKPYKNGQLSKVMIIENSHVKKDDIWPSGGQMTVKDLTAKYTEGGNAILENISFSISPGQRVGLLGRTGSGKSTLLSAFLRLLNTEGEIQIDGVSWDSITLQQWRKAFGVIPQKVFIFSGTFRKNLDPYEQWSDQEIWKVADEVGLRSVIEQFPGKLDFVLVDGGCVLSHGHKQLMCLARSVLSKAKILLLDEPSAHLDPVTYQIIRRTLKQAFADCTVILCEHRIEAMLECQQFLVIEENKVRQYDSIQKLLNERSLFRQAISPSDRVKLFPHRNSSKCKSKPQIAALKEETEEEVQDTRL

Structure (SMILES): CCOC(=O)CSc1nc2ccccc2c(=O)n1-c1ccccc1C [DQA, ethyl 2-(4-oxo-3-o-tolyl-3,4-dihydroquinazolin-2-ylthio)acetate]
- IC50: ~20 µM
